# Results as given in patent publication US4703061A, “Gamma-aminobutyric acid derivatives, process for production thereof, and use thereof as medicaments” (priority 1984, dated 1987).
# Where a name gives a salt, the structure may show the parent alone.
# Legend:
# Format in all cases: in vivo, ddY-strain male mice
# [1] = system: cycloheximide-induced amnesia model; experiment: Effects on CXM-induced amnesia (step-down retention test); conditions: for Escape learning latency (mean ± S.E.) / Step-down latency (mean ± S.E.): retention test 24 hours
# Experimental: The test animals used were ddY-strain male mice (body weight 30-35 g). The experiment was carried out indoors at about 20° C., and the mice were allowed to take feed and water freely. 2. Effects on memorized behaviors
# A device comprised of a floor grid surrounded on four sides by acrylic glass walls each having a lateral dimension of 21 cm and a wooden platform, 4×4×4 cm in size, fixed centrally to the floor grid was placed in a wooden semi-soundproof box having a size of 21×21×40 cm with a 15W electric bulb suspended from its ceiling.
# The floor grid consisted of stainless steel rods, 3 mm in diameter, arranged at intervals of 8 mm. An intermittent electric shock (1 Hz, 0.5 sec., 60 V DC) was applied to the grid by an electric impulse apparatus and an isolator.
# A mouse was placed in a predetermined direction on the platform. Immediately after the mouse stepped down onto the floor grid (when the mouse's four limbs left the platform), an electric shock was applied to the floor grid, and the intermittent application of the electric shock was continued until the mouse climbed up the platform to escape from the electric shock. The time which elapsed until the mouse stepped down from the platform (SDL, step down latency) and the time which elapsed until the mouse escaped to the platform from the electric shock (ELL, escape learning latency) were measured.
# By the same procedure as in the training test, a mouse was placed on the platform, and its step down latency (SDL) was measured. The cut-off time was 300 seconds.
# After the mouse stepped down, or the cut-off time elapsed, the mouse was placed on the floor grid at a corner of the device with its head directed in a direction opposite to the platform. An electric shock was applied to the mouse and its escape learning latency (ELL) was measured.
# Mice divided into groups each consisting of not less than 20 mice were subjected to the training test, and immediately then subcutaneously injected with CXM (150 mg/kg). Twenty-four hours later, the mice was subjected to the retention test.
# Immediately after administration of CXM or application of ECS, a 0.9% normal saline solution of each of the test compounds was intraperitoneally administered to the mice. Separately, a 5% gum arabic solution of CXM was administered to the mice in a control group.
# [2] = system: electric convulsive shock-induced amnesia model; experiment: Effects on ECS-induced amnesia (step-down retention test); conditions: for Escape learning latency (mean ± S.E.) / Step-down latency (mean ± S.E.): ECS 300 V, retention test 24 hours
# Experimental: The test animals used were ddY-strain male mice (body weight 30-35 g). The experiment was carried out indoors at about 20° C., and the mice were allowed to take feed and water freely. 2. Effects on memorized behaviors A device comprised of a floor grid surrounded on four sides by acrylic glass walls each having a lateral dimension of 21 cm and a wooden platform, 4×4×4 cm in size, fixed centrally to the floor grid was placed in a wooden semi-soundproof box having a size of 21×21×40 cm with a […] electric bulb suspended from its ceiling. The floor grid consisted of stainless steel rods, 3 mm in diameter, arranged at intervals of 8 mm. An intermittent electric shock (1 Hz, 0.5 sec., 60 V DC) was applied to the grid by an electric impulse apparatus and an isolator. A mouse was placed in a predetermined direction on the platform. Immediately after the mouse stepped down onto the floor grid (when the mouse's four limbs left the platform), an electric shock was applied to the floor grid, and the intermittent application of the electric shock was continued until the mouse climbed up the platform to escape from the electric shock. The time which elapsed until the mouse stepped down from the platform (SDL, step down latency) and the time which elapsed until the mouse escaped to the platform from the electric shock (ELL, escape learning latency) were measured. […] By the same procedure as in the training test, a mouse was placed on the platform, and its step down latency (SDL) was measured. The cut-off time was 300 seconds. After the mouse stepped down, or the cut-off time elapsed, the mouse was placed on the floor grid at a corner of the device with its head directed in a direction opposite to the platform. An electric shock was applied to the mouse and its escape learning latency (ELL) was measured. Mice divided into groups each consisting of not less than 15 mice were subjected to the training test, and immediately then, ECS (300 V DC, 0.5 sec.) was applied to the mice through both ears. Twenty-four hours later, the mice were subjected to the retention test. Immediately after administration of CXM or application of ECS, a 0.9% normal saline solution of each of the test compounds was intraperitoneally administered to the mice. Separately, a 5% gum arabic solution of CXM was administered to the mice in a control group. […] But the mice recovered 1 to 2 minutes later.
# [3] = system: locomotor activity of mice; experiment: Effects on locomotor activity, wheel cage method
# Experimental: In Tests 1 to 4 given below, ddY-strain male mice (body weight 20-25 g) were used, and the experiments were carried out in a semi-soundproof, constant-temperature room kept at a temperature of 23±1° C. and a humidity of 55±2%. The mice were allowed to take feed and water freely.
# Test 1: Effects on locomotor activity
# The effects of the test compound on the locomotor activities of the mice were examined by using wheel cages (made by Kishimoto Ika). […] The mice were used in groups each consisting of 8 mice. The test compound was intraperitoneally administered to the mice in the doses indicated, and immediately then, the mice were put into the cages. The locomotor activities (the number of revolutions) were measured for 90 minutes at 15 minute intervals, and compared with that of the control group.
# [4] = 500 mg/kg i.p., CXM 150 mg/kg s.c.
# [5] = 1000 mg/kg i.p., CXM 150 mg/kg s.c.
structure (smiles),measurement,setting,value
"CC(O)(CCO)CC(=O)NCCCC(=O)O (centres unmarked) [MV-GABA-Ca salt, calcium 4-(3,5-dihydroxy-3-methylpentylamide) butyrate]",shortening of SDL induced by CXM,"[1]; 500 mg/kg and 1,000 mg/kg, result in words",significantly improved the shortening of SDL
same,Escape learning latency (mean ± S.E.),[1]; [4],10.5 ± 0.6 s
same,Step-down latency (mean ± S.E.),[1]; [4],120.5 ± 10.6 s
same,Escape learning latency (mean ± S.E.),[1]; [5],7.5 ± 0.6 s
same,Step-down latency (mean ± S.E.),[1]; [5],175.2 ± 16.1 s
same,Escape learning latency (mean ± S.E.),"[1]; 1000 mg/kg i.p., without CXM",5.2 ± 0.6 s
same,Step-down latency (mean ± S.E.),"[1]; 1000 mg/kg i.p., without CXM",260.5 ± 14.0 s
same,prolongation of ELL induced by CXM,"[1]; 1,000 mg/kg, result in words",significantly improved the prolongation of ELL
same,memory activating action,"[1]; without CXM, vs control group, result in words",did not show memory activating action
same,Escape learning latency (mean ± S.E.),[2]; 250 mg/kg i.p.,12.8 ± 1.6 s
same,Step-down latency (mean ± S.E.),[2]; 250 mg/kg i.p.,104.6 ± 17.7 s
same,Escape learning latency (mean ± S.E.),[2]; 500 mg/kg i.p.,8.0 ± 1.1 s
same,Step-down latency (mean ± S.E.),[2]; 500 mg/kg i.p.,158.5 ± 21.7 s
same,prolongation of ELL (ECS),"[2]; 500 mg/kg, result in words",significantly improved the prolongation of ELL
same,Escape learning latency (mean ± S.E.),[2]; 750 mg/kg i.p.,6.7 ± 0.7 s
same,Step-down latency (mean ± S.E.),[2]; 750 mg/kg i.p.,215.2 ± 15.9 s
same,shortening of SDL and prolongation of ELL (ECS),"[2]; 750 mg/kg, result in words",significantly improved shortening of SDL and also the prolongation of ELL
same,Motor activity (total number of revolutions per mouse),"[3]; 250 mg/kg i.p., 15 minutes",201 revolutions per mouse
same,Motor activity (total number of revolutions per mouse),"[3]; 250 mg/kg i.p., 30 minutes",406 revolutions per mouse
same,Motor activity (total number of revolutions per mouse),"[3]; 250 mg/kg i.p., 45 minutes",560 revolutions per mouse
same,Motor activity (total number of revolutions per mouse),"[3]; 250 mg/kg i.p., 60 minutes",727 revolutions per mouse
same,Motor activity (total number of revolutions per mouse),"[3]; 250 mg/kg i.p., 75 minutes",865 revolutions per mouse
same,Motor activity (total number of revolutions per mouse),"[3]; 250 mg/kg i.p., 90 minutes",916 revolutions per mouse
same,Motor activity (total number of revolutions per mouse),"[3]; 500 mg/kg i.p., 15 minutes",132 revolutions per mouse
same,Motor activity (total number of revolutions per mouse),"[3]; 500 mg/kg i.p., 30 minutes",289 revolutions per mouse
same,Motor activity (total number of revolutions per mouse),"[3]; 500 mg/kg i.p., 45 minutes",448 revolutions per mouse
same,Motor activity (total number of revolutions per mouse),"[3]; 500 mg/kg i.p., 60 minutes",615 revolutions per mouse
same,Motor activity (total number of revolutions per mouse),"[3]; 500 mg/kg i.p., 75 minutes",826 revolutions per mouse
same,Motor activity (total number of revolutions per mouse),"[3]; 500 mg/kg i.p., 90 minutes",1034 revolutions per mouse
same,Motor activity (total number of revolutions per mouse),"[3]; 1000 mg/kg i.p., 15 minutes",76 revolutions per mouse
same,Motor activity (total number of revolutions per mouse),"[3]; 1000 mg/kg i.p., 30 minutes",165 revolutions per mouse
same,Motor activity (total number of revolutions per mouse),"[3]; 1000 mg/kg i.p., 45 minutes",265 revolutions per mouse
same,Motor activity (total number of revolutions per mouse),"[3]; 1000 mg/kg i.p., 60 minutes",428 revolutions per mouse
same,Motor activity (total number of revolutions per mouse),"[3]; 1000 mg/kg i.p., 75 minutes",639 revolutions per mouse
same,Motor activity (total number of revolutions per mouse),"[3]; 1000 mg/kg i.p., 90 minutes",837 revolutions per mouse
